Experimental data published in patent publication US12274711B2, “Method of determining Acute Myeloid Leukemia response to treatment with farnesyltransferase inhibitors” (Janssen Pharmaceutica NV, priority 2010, dated 2025).

Key:
[1] = tested on: previously untreated, poor-risk AML; experiment: Phase 2 study of tipifarnib in older adults with previously untreated, poor-risk AML (clinical response, overall survival); assay type: in vivo, human
Description: In an exemplary example, bone marrow samples are collected from an open label, multicenter, non-comparative phase 2 study investigating the efficacy and safety of farnesyltransferase inhibition with tipifarnib (R115777, ZARNESTRA®) in older adults with previously untreated, poor-risk AML.
Briefly, HI was defined as any bone marrow blast count less than 5% or a reduction in bone marrow blasts by at least half. Progressive disease (PD) was defined as either >50% increase in bone marrow or circulating blast % from baseline, or new appearance of circulating blasts (on at least 2 consecutive occasions). Stable disease (SD) was defined as any response not meeting CR, PR, HI, or PD criteria.
This study examined gene expression profiles of leukemic bone marrow samples from patients enrolled in a Phase 2 clinical trial of the farnesyltransferase inhibitor tipifarnib in elderly patients with previously untreated poor-risk acute myelogenous leukemia. Lancet et al. (2006). Bone marrow from 67 patients was collected before treatment with tipifarnib and leukemic myeloid cells were enriched by Ficoll-density centrifugation (Table 1). Good quality total RNA from 13 responders (9 CR, 4 HI), 8 stable disease and 13 progressive disease patients was amplified, labeled, and hybridized to the Affymetrix U133A GeneChip. A total of 30 samples were evaluated by qPCR for validation of specific genes and 32 samples were evaluated for N-RAS mutational status.

[2] = tested on: relapsed/refractory AML; experiment: Independent dataset of 54 relapsed/refractory AML patients treated with tipifarnib; assay type: in vivo, human; conditions: 54 relapsed/refractory AML patient samples
Method: External validation of the TSP classifier was performed in an independent microarray dataset comprising of 54 relapsed/refractory AML patient samples. A diagnostic assay that predicts likely response to a cancer therapy should have a high sensitivity (and negative predictive value) since it is important to capture as many potential responders as possible. Therefore, to define an appropriate cutoff for testing the TSP classifier the need to obtain a high sensitivity of predicting responders while maintaining an acceptable level of specificity was considered. In the training set, the level of specificity that could be achieved ranged from approximately 30% to 100% when the sensitivity was set at 100% to 80%, respectively. To ensure the classifier would predict as many responders as possible a conservative cutoff that provided a specificity of approximately 60% in the training set was tested. When this cutoff was applied to the independent testing set of relapsed/refractory AML, the RASGRP1:APTX gene classifier stratified responders with 92% NPV and 27.6% PPV (compared to 18.5% prevalence) (FIG. 3C). The associated odds ratio for being a responder was 4.38.

[3] = Kaplan Meier analysis, RASGRP1 classifier, newly diagnosed AML (FIG. 1B)
[4] = qPCR RASGRP1:APTX classifier, cut-point 0, 30 patients (FIG. 3C)

Compound: Cn1cncc1[C@@](N)(c1ccc(Cl)cc1)c1ccc2c(c1)c(-c1cccc(Cl)c1)cc(=O)n2C [tipifarnib]
- CR, (%) ([1]; All treated patients (n=158)): (14) %
- CR, no. ([1]; All treated patients (n=158)): 22
- HI, (%) ([1]; All treated patients (n=158)): (8) %
- HI, no. ([1]; All treated patients (n=158)): 12
- PD, (%) ([1]; All treated patients (n=158)): (37) %
- PD, no. ([1]; All treated patients (n=158)): 58
- PR, (%) ([1]; All treated patients (n=158)): (2) %
- PR, no. ([1]; All treated patients (n=158)): 3
- median overall survival of the responders [1, 3]: 386 days
- median overall survival of those with progressive disease [1, 3]: 68 days
- CR, (%) ([1]; PGx profiled patients (n=67)): (21) %
- CR, no. ([1]; PGx profiled patients (n=67)): 14
- HI, (%) ([1]; PGx profiled patients (n=67)): (10) %
- HI, no. ([1]; PGx profiled patients (n=67)): 7
- PD, (%) ([1]; PGx profiled patients (n=67)): (44) %
- PD, no. ([1]; PGx profiled patients (n=67)): 30
- PR, (%) ([1]; PGx profiled patients (n=67)): (2) %
- PR, no. ([1]; PGx profiled patients (n=67)): 1
- median overall survival of the predicted resistant patients [1, 4]: 82 days
- median overall survival of those classified as responders [1, 4]: 295 days
- prevalence of responders [2]: 18.5%
